Reference: publication PMC12298822 (Molecules, 2025)

Columns and labels:
[1] = cited from earlier work
[2] = Stability of stock and working solutions; format: physicochemical
Procedure: These stock solutions were diluted with 50% acetonitrile to prepare working standard solutions. The working solutions’ calibration curve (CC) concentrations were set at 50, 100, 500, 1000, 2500, 5000, and 10,000 ng/mL, while the quality control (QC) concentrations were 150, 3000, and 8000 ng/mL. The IS concentration was prepared at 1000 ng/mL. All working stock solutions were prepared and stored at −20 °C until use. […] Consequently, the final calibration curve range was 5–1000 ng/mL. […] All results were within the acceptable deviation limit of ±15% from the nominal concentrations. To assess the plasma stability of the analyte, low, medium, and high QC levels (n = 3) were tested under various conditions, including refrigerated storage at 4 °C for 24 h, deep-freezing at −70 °C for 7 h, three freeze–thaw cycles (between −70 °C and room temperature), and storage in the autosampler at 10 °C for 30 h. All measured concentrations under these conditions met the predefined acceptance criteria of ±15%, confirming the robustness and reliability of the analytical method.

[3] = cited from earlier work; remark: listed apart in the source
[4] = 100 mg dose; cited from earlier work
[5] = Stability of sitagliptin in human plasma samples under storage and handling conditions; format: in vitro ADME
Procedure: (§1) Human plasma samples were removed from a −70 °C deep freezer and thawed at room temperature. After vortexing and centrifugation, 100 µL of plasma was transferred into a glass tube. To this, 20 µL of the IS (1000 ng/mL) was added, followed by the addition of 2 mL of MTBE as the extraction solvent. The mixture was vortexed vigorously for 10 min and centrifuged at 1699 g for 10 min at 4 °C. The upper organic layer (2 mL) was carefully transferred to a new tube and evaporated to dryness under a nitrogen stream at 40 °C. The dried residue was reconstituted with a total volume of 1 mL of a reconstitution solvent composed of 0.01% formic acid in DW and 100% ACN (1:1, v/v), vortexed for 10 min, and centrifuged again at 1699× g. A 5 µL aliquot of the clear supernatant was injected into the LC–MS/MS system for analysis.
The stability of both stock and working solutions was evaluated at low and high QC levels (n = 3) under storage conditions of room temperature (25 °C) for 3 h and −20 °C for 7 h. All results were within the acceptable deviation limit of ±15% from the nominal concentrations. To assess the plasma stability of the analyte, low, medium, and high QC levels (n = 3) were tested under various conditions, including refrigerated storage at 4 °C for 24 h, deep-freezing at −70 °C for 7 h, three freeze–thaw cycles (between −70 °C and room temperature), and storage in the autosampler at 10 °C for 30 h. All measured concentrations under these conditions met the predefined acceptance criteria of ±15%, confirming the robustness and reliability of the analytical method.

[6] = Pharmacokinetic study after a single oral 100 mg sitagliptin tablet in healthy Korean male subjects (LC-MS/MS of plasma); format: in vivo, human; details: single oral 100 mg tablet, fasting
Procedure: as §1
This study procedures were conducted with the principles of the Helsinki Declaration (World Medical Association Declaration of Helsinki 2000) and Korean Good Clinical Practice guidelines. The study was approved by the Institutional Review Board (IRB) of Kyung Hee University Hospital (IRB No. KHUH 2023-07-039; approval date: 20 October 2023). […] Blood samples were collected using EDTA-K2 anticoagulant tubes at various time points: pre-dose (0 h), and at 0.5, 1, 1.5, 2, 2.5, 3, 4, 6, 8, 16, 24, and 48 h following administration. Once collected, the blood samples were centrifuged at 3000 rpm for 10 min to separate the plasma, which was then transferred to labeled tubes and stored at −70 °C until analysis. All clinical procedures, including dosing, sampling, and analysis, were conducted consistently across all subjects.
Pharmacokinetic parameters such as Cmax (maximum plasma concentration), Tmax (time to reach Cmax), T1/2 (elimination half-life), and CL/F (apparent oral clearance) were determined from individual plasma concentration–time profiles. Non-compartmental analysis for extravascular administration was performed using BA Cal 2007 software (MFDS, version 1.0.0). This analysis calculated parameters including AUClast (area under the concentration–time curve from 0 to 48 h) and AUCinf (area under the curve extrapolated to infinity). The statistical analysis of the pharmacokinetic data was conducted using K-BE Test II software (version 2.0.2), which was developed and distributed by the MFDS [26].

N[C@@H](CC(=O)N1CCn2c(nnc2C(F)(F)F)C1)Cc1cc(F)c(F)cc1F [Sitagliptin, 7-[(3R)-3-amino-1-oxo-4-(2,4,5-trifluorophenyl)butyl]-5,6,7,8-tetrahydro-3-(trifluoromethyl)]
binding to plasma proteins [1]: 38%
Solution stability (%), mean ([2]; stock solution, room temperature (3 h), 15 ng/mL level, vs freshly prepared): 100.89%
Solution stability (%), mean ([2]; stock solution, room temperature (3 h), 800 ng/mL level, vs freshly prepared): 99.25%
Solution stability (%), mean ([2]; working solution, room temperature (7 h), 15 ng/mL level): 100.19%
Solution stability (%), mean ([2]; working solution, room temperature (7 h), 800 ng/mL level): 95.93%
apparent volume of distribution [3]: approximately 198 L
fraction of total clearance by hepatic metabolism (CYP3A4 and CYP2C8) [3]: < 16%
oral bioavailability [3]: approximately 87%
maximum concentration (Cmax) [4]: 327.98 ng/mL
terminal half-life (T1/2) [4]: 8.92 h
time to reach maximum concentration (Tmax) [4]: 2.68 h
Plasma sample stability (%), mean ([5]; human plasma, deep freeze (7 h, −70 °C), 15 ng/mL): 99.61%
Plasma sample stability (%), mean ([5]; human plasma, deep freeze (7 h, −70 °C), 300 ng/mL): 96.77%
Plasma sample stability (%), mean ([5]; human plasma, deep freeze (7 h, −70 °C), 800 ng/mL): 97.96%
Plasma sample stability (%), mean ([5]; human plasma, freeze–thaw (3 cycles), 15 ng/mL): 103.73%
Plasma sample stability (%), mean ([5]; human plasma, freeze–thaw (3 cycles), 300 ng/mL): 98.57%
Plasma sample stability (%), mean ([5]; human plasma, freeze–thaw (3 cycles), 800 ng/mL): 97.71%
Plasma sample stability (%), mean ([5]; human plasma, refrigeration (7 h, 4 °C), 15 ng/mL): 100.61%
Plasma sample stability (%), mean ([5]; human plasma, refrigeration (7 h, 4 °C), 300 ng/mL): 100.02%
Plasma sample stability (%), mean ([5]; human plasma, refrigeration (7 h, 4 °C), 800 ng/mL): 96.29%
Plasma sample stability (%), mean ([5]; human plasma, room temperature (7 h), 15 ng/mL): 102.57%
Plasma sample stability (%), mean ([5]; human plasma, room temperature (7 h), 300 ng/mL): 97.43%
Plasma sample stability (%), mean ([5]; human plasma, room temperature (7 h), 800 ng/mL): 96.99%
Plasma sample stability (%), mean ([5]; processed (LLE) plasma sample, autosampler (30 h, 10 °C), 15 ng/mL): 105.20%
Plasma sample stability (%), mean ([5]; processed (LLE) plasma sample, autosampler (30 h, 10 °C), 300 ng/mL): 97.37%
Plasma sample stability (%), mean ([5]; processed (LLE) plasma sample, autosampler (30 h, 10 °C), 800 ng/mL): 96.83%
half-life ([6]; human, plasma, n = 8, mean): 8.47 ± 3.08 h
Cmax ([6]; human, n = 8, plasma, mean): 373 ng/mL
Tmax ([6]; human, n = 8, plasma, mean): 2.06 h
AUClast ([6]; n = 8, 0 to 48 h, mean): 2863.82 ng·h/mL
AUCinf ([6]; n = 8, extrapolated to infinity, mean): 3010.56 ± 302.61 ng·h/mL
